Experimental data as given in US9034918B2, “Composition including at least one trans-cinnamaldehyde and the use thereof in the treatment of bacterial infections, specifically in the treatment of nosocomial infections” (SEPTEOS, priority 2009, dated 2015).

What was measured:
Test in all cases: Antibiogram by diffusion technique (CA-SFM 2008)
Format in all cases: cell-based
E. coli ATCC 25922 = tested on: E. coli ATCC 25922; set-up: Diameter (D): unit not given here
From the text: Three clinical categories were selected for interpretation of the in vitro sensitivity tests: sensitive (S), resistant (R) and intermediate (I). • The strains categorized S are those for which the probability of therapeutic success is high in the case of treatment by systemic route with the dosing schedule recommended in the summary of product characteristics (SPC) prepared by the French Health Products Safety Agency ([…]). • The strains categorized R are those for which there is a high probability of therapeutic failure regardless of treatment type and antibiotic dose. • The strains categorized I are those for which therapeutic success cannot be predicted. These strains form a heterogeneous group for which the results obtained in vitro are not predictive of therapeutic success. […] The intermediate category is also a buffer zone which takes into account technical and biological uncertainties. The sensitivity of strains to antibiotics was determined by a diffusion technique according to the 2008 recommendations by the Antibiogram Committee of the French Microbiology Society (CA-SFM). In terms of critical concentrations and diameters, strains are categorized as follows: • sensitive (S): strains for which the MIC of the antibiotic tested is less than or equal to the lower critical concentration c, which is equivalent to a diameter greater than or equal to the critical diameter D; • resistant (R): strains for which the MIC of the antibiotic tested are greater than the upper critical concentration C, corresponding to a diameter less than the critical diameter d; • intermediate sensitivity (I): strains for which the MIC of the antibiotic tested and the corresponding diameter are between the two critical concentrations and the two critical diameters. The tests were carried out on Mueller-Hinton agar. An inoculum adjusted to 0.5 on the McFarland scale is then diluted to 1/100. Petri dishes are inoculated by swabbing. The dishes are read after 24 hours of incubation at 37° C. The raw results are then interpreted according to the interpretative reading rules of the CA-SFM. Two examples: all strains of methicillin-resistant Staphylococcus are resistant to all beta-lactams, and the same is true for gentamicin-resistant strains; golden staph is necessarily resistant to kanamycin (and amikacin) and tobramycin. The quality of the diffusion method is controlled using E. coli strain ATCC 25922.

Enterococcus strain 8153 = tested on: Enterococcus strain 8153; set-up: Diameter: unit not given here
From the text: (§1) Three clinical categories were selected for interpretation of the in vitro sensitivity tests: sensitive (S), resistant (R) and intermediate (I). • The strains categorized S are those for which the probability of therapeutic success is high in the case of treatment by systemic route with the dosing schedule recommended in the summary of product characteristics (SPC) prepared by the French Health Products Safety Agency (AFSSAPS). • The strains categorized R are those for which there is a high probability of therapeutic failure regardless of treatment type and antibiotic dose. • The strains categorized I are those for which therapeutic success cannot be predicted. These strains form a heterogeneous group for which the results obtained in vitro are not predictive of therapeutic success. […] The intermediate category is also a buffer zone which takes into account technical and biological uncertainties.
(§2) The sensitivity of strains to antibiotics was determined by a diffusion technique according to the 2008 recommendations by the Antibiogram Committee of the French Microbiology Society (CA-SFM).
(§3) In terms of critical concentrations and diameters, strains are categorized as follows: • sensitive (S): strains for which the MIC of the antibiotic tested is less than or equal to the lower critical concentration c, which is equivalent to a diameter greater than or equal to the critical diameter D; • resistant (R): strains for which the MIC of the antibiotic tested are greater than the upper critical concentration C, corresponding to a diameter less than the critical diameter d; • intermediate sensitivity (I): strains for which the MIC of the antibiotic tested and the corresponding diameter are between the two critical concentrations and the two critical diameters.
(§4) The tests were carried out on Mueller-Hinton agar. An inoculum adjusted to 0.5 on the McFarland scale is then diluted to 1/100. Petri dishes are inoculated by swabbing. The dishes are read after 24 hours of incubation at 37° C.
(§5) The raw results are then interpreted according to the interpretative reading rules of the CA-SFM.

Enterococcus strain 8152 = tested on: Enterococcus strain 8152; set-up: Diameter: unit not given here
From the text: as §1, §2, §3, §4, §5

[1] = tested on: strain 9007, Pseudomonas aeruginosa, with VIM-2 carbapenemase
From the text: as §1, §2, §3, §4, §5

E. coli strain 9003 = tested on: E. coli strain 9003
From the text: as §1, §2, §3, §4, §5

[2] = tested on: Enterobacter aerogenes (9004); conditions: strain 9004
From the text: as §1, §2, §3, §4, §5

[3] = tested on: strain 9010, Acinetobacter baumannii, with VEB-1 ESBL
From the text: as §1, §2, §3, §4, §5

[4] = tested on: golden staph (S. aureus) strain 8147; set-up: D: unit not given here
From the text: as §1, §2, §3, §4, §5

[5] = tested on: Pseudomonas aeruginosa strain 8128; set-up: D: unit not given here
From the text: as §1, §2, §3, §4, §5

E. coli strain 8157 = tested on: E. coli strain 8157; set-up: D: unit not given here
From the text: as §1, §2, §3, §4, §5

[6] = tested on: Pseudomonas aeruginosa strain 8129; set-up: D: unit not given here
From the text: as §1, §2, §3, §4, §5

[7] = tested on: golden staph (S. aureus) strain 8240; set-up: D: unit not given here
From the text: as §1, §2, §3, §4, §5

[8] = tested on: golden staph (S. aureus) strain 8239; set-up: D: unit not given here
From the text: as §1, §2, §3, §4, §5

[9] = tested on: Pseudomonas aeruginosa strain 8132; set-up: D: unit not given here
From the text: as §1, §2, §3, §4, §5

E. coli strain 8154 = tested on: E. coli strain 8154; set-up: D: unit not given here
From the text: as §1, §2, §3, §4, §5

[10] = tested on: Pseudomonas aeruginosa strain 8134; set-up: D: unit not given here
From the text: as §1, §2, §3, §4, §5

E. coli strain 8156 = tested on: E. coli strain 8156; set-up: D: unit not given here
From the text: as §1, §2, §3, §4, §5

E. coli strain 8155 = tested on: E. coli strain 8155; set-up: D: unit not given here
From the text: as §1, §2, §3, §4, §5

[11] = tested on: Enterococcus faecium (9001); conditions: strain 9001
From the text: as §1, §2, §3, §4, §5

Compound | Category (Cat.) (E. coli ATCC 25922) | Diameter (D) (E. coli ATCC 25922) | Category (Enterococcus strain 8153) | Diameter (Enterococcus strain 8153) | Category (Enterococcus strain 8152) | Diameter (Enterococcus strain 8152) | Category [1] | Category [3] | Cat. [4] | D [4] | Cat. [5] | D [5] | Cat. (E. coli strain 8157) | D (E. coli strain 8157) | Cat. [6] | Cat. [7] | D [7] | Cat. [8] | D [8] | Category [11] | further results
CC1(C)S[C@@H]2[C@H](NC(=O)[C@H](N)c3ccc(O)cc3)C(=O)N2[C@H]1C(=O)O [Amoxicillin] | S | 23 | S | 33 | S | 32 | R | R | R | 26 | R | 0 | R | 0 | R | R | 17 | R | 12 | – | Category (E. coli strain 9003): R; Category [2]: R; D [6]: 0; Cat. [9]: R; D [9]: 0; Cat. (E. coli strain 8154): R; D (E. coli strain 8154): 0; Cat. [10]: R; D [10]: 0; Cat. (E. coli strain 8156): S; D (E. coli strain 8156): 25; Cat. (E. coli strain 8155): S; D (E. coli strain 8155): 24
CN[C@@H]1[C@H](O[C@H]2[C@H](O[C@H]3[C@H](O)[C@@H](O)[C@H](N=C(N)N)[C@@H](O)[C@@H]3N=C(N)N)O[C@@H](C)[C@]2(O)C=O)O[C@@H](CO)[C@H](O)[C@H]1O [Strepto HC] | – | – | – | – | – | – | – | – | – | – | – | – | – | – | – | – | – | – | – | R | –
CN[C@H](CC(C)C)C(=O)N[C@H]1C(=O)N[C@@H](CC(N)=O)C(=O)N[C@H]2C(=O)N[C@H]3C(=O)N[C@H](C(=O)N[C@H](C(=O)O)c4cc(O)cc(O)c4-c4cc3ccc4O)[C@H](O)c3ccc(c(Cl)c3)Oc3cc2cc(c3O[C@@H]2O[C@H](CO)[C@@H](O)[C@H](O)[C@H]2O[C@H]2C[C@](C)(N)[C@H](O)[C@H](C)O2)Oc2ccc(cc2Cl)[C@H]1O [Vanco] | – | – | – | – | – | – | – | – | – | – | – | – | – | – | – | – | – | – | – | R | –
NC[C@H]1O[C@H](O[C@H]2[C@H](O)[C@@H](O[C@H]3O[C@H](CO)[C@@H](O)[C@H](N)[C@H]3O)[C@H](N)C[C@@H]2N)[C@H](O)[C@@H](O)[C@@H]1O [Kanamycin] | S | 22 | R | 14 | R | 10 | R | R | S | 22 | R | 9 | S | 24 | R | R | 12 | S | 26 | R | D [6]: 10; Cat. [9]: R; D [9]: 0; Cat. (E. coli strain 8154): S; D (E. coli strain 8154): 24; Cat. [10]: R; D [10]: 14; Cat. (E. coli strain 8156): S; D (E. coli strain 8156): 27; Cat. (E. coli strain 8155): S; D (E. coli strain 8155): 23
CCC[C@@H]1C[C@@H](C(=O)N[C@@H]([C@H]2O[C@H](SC)[C@H](O)[C@@H](O)[C@H]2O)[C@H](C)Cl)N(C)C1 [Clindamycin] | – | – | R | 0 | R | 0 | – | – | S | 29 | – | – | – | – | – | S | 30 | S | 31 | R | –
CC[C@H]1OC(=O)[C@H](C)[C@@H](O[C@H]2C[C@@](C)(OC)[C@@H](O)[C@H](C)O2)[C@H](C)[C@@H](O[C@@H]2O[C@H](C)C[C@H](N(C)C)[C@H]2O)[C@](C)(O)C[C@@H](C)C(=O)[C@H](C)[C@@H](O)[C@]1(C)O [Erythro] | – | – | – | – | – | – | – | – | – | – | – | – | – | – | – | – | – | – | – | R | –
COc1c(N2C[C@@H]3CCCN[C@@H]3C2)c(F)cc2c(=O)c(C(=O)O)cn(C3CC3)c12 [Moxiflo] | – | – | – | – | – | – | – | – | – | – | – | – | – | – | – | – | – | – | – | R | –
Amoxicillin + clavulanic acid | S | 22 | S | 32 | S | 30 | R | R | R | 25 | R | 0 | S | 30 | R | R | 25 | R | 27 | – | Category (E. coli strain 9003): S; Category [2]: R; D [6]: 0; Cat. [9]: R; D [9]: 0; Cat. (E. coli strain 8154): S; D (E. coli strain 8154): 14; Cat. [10]: R; D [10]: 0; Cat. (E. coli strain 8156): S; D (E. coli strain 8156): 22; Cat. (E. coli strain 8155): S; D (E. coli strain 8155): 24
NC[C@H]1O[C@H](O[C@H]2[C@H](O)[C@@H](O[C@H]3O[C@H](CO)[C@@H](O)[C@H](N)[C@H]3O)[C@H](N)C[C@@H]2N)[C@H](N)C[C@@H]1O [Tobramycin] | S | 24 | R | 14 | R | 11 | S | R | S | 30 | S | 30 | S | 24 | S | R | 0 | S | 31 | – | Category (E. coli strain 9003): S; Category [2]: R; D [6]: 27; Cat. [9]: R; D [9]: 0; Cat. (E. coli strain 8154): S; D (E. coli strain 8154): 24; Cat. [10]: R; D [10]: 11; Cat. (E. coli strain 8156): S; D (E. coli strain 8156): 22; Cat. (E. coli strain 8155): S; D (E. coli strain 8155): 24
CC1(C)S[C@@H]2[C@H](NC(=O)[C@H](N)c3ccccc3)C(=O)N2[C@H]1C(=O)O [Ampi] | – | – | – | – | – | – | – | – | – | – | – | – | – | – | – | – | – | – | – | R | –
O=C(N[C@H](CO)[C@H](O)c1ccc([N+](=O)[O-])cc1)C(Cl)Cl [Chloram] | – | – | – | – | – | – | – | – | – | – | – | – | – | – | – | – | – | – | – | S | –
CC(=O)NC[C@H]1CN(c2ccc(N3CCOCC3)c(F)c2)C(=O)O1 [Linezolid] | – | – | – | – | – | – | – | – | – | – | – | – | – | – | – | – | – | – | – | S | –
CN(C)[C@@H]1C(O)=C(C(N)=O)C(=O)[C@@]2(O)C(O)=C3C(=O)c4c(O)cccc4[C@@](C)(O)[C@H]3C[C@@H]12 [Tetra] | – | – | – | – | – | – | – | – | – | – | – | – | – | – | – | – | – | – | – | S | –
